Experimental data: US11472842B2 (Protagonist Therapeutics, Inc., priority 2015, dated 2022)

Biological target: T1, human ferroportin (Homo sapiens, UniProt Q9NP59)
T1 construct: expressed in transfected cells
T1 sequence (Q9NP59 1-571): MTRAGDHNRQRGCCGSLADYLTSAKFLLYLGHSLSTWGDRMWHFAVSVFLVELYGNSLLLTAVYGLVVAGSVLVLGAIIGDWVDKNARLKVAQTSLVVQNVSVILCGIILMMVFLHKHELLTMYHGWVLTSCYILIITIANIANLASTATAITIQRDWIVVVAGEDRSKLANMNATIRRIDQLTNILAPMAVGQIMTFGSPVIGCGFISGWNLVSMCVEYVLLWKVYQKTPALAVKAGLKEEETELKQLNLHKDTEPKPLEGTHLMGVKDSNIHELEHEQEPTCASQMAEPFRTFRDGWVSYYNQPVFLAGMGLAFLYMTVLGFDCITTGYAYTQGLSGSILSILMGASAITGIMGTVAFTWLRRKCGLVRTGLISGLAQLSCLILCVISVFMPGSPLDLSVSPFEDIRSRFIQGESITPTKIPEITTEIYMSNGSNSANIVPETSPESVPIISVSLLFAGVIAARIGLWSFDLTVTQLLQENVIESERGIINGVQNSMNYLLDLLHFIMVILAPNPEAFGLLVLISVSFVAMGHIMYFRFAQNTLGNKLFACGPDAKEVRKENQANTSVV
Experiment: Ferroportin internalization / degradation, HEK-GFP cell based assay (HEK293 cells stably expressing ferroportin-GFP, decrease in GFP fluorescence)
Details: Table 3 monomer analogues; ferroportin-GFP HEK293 cells, 18-24 h incubation; read-out: HEK-GFP cell based assay (potency EC50)
Description: Peptide analogues were tested in vitro for induction of internalization of the human ferroportin protein. Following internalization, the […] are degraded. The assay measures a decrease in fluorescence of the receptor.
The cDNA encoding the human ferroportin (SLC40A1) was cloned from a cDNA clone from Origene (NM_014585). The DNA encoding the ferroportin was amplified by PCR using primers also encoding terminal restriction sites for subcloning, but without the termination codon. The ferroportin receptor was subcloned into a mammalian GFP expression vector containing a neomycin (G418) resistance marker in such that the reading frame of the ferroportin was fused in frame with the GFP protein. The fidelity of the DNA encoding the protein was confirmed by DNA sequencing. HEK293 cells were used for transfection of the ferroportin-GFP receptor expression plasmid. The cells were grown according to standard protocol in growth medium and transfected with the plasmids using Lipofectamine (manufacturer's protocol, Invitrogen). […] The cells were propagated and frozen in aliquots.
Compound was added to desired final concentration for at least 18 hours in the incubator. […] Compound was added to desired final concentration for at least 18 hours but no more than 24 hours in the incubator.
The EC50 of these reference compounds for ferroportin degradation was determined according to the activity assay described above. These peptides served as control standards.
These values were determined as described herein.

SMILES	DC50 [nM]
CCCCCCCCCCCCCCCC(=O)N[C@@H](CCC(=O)NCCCC[C@@H]1NC(=O)[C@H](Cc2ccccc2)NC(=O)[C@H](CCCCN)NC(=O)[C@H]([C@@H](C)CC)NC(=O)[C@@H](NC(=O)[C@@H]2CCCN2C(=O)[C@H](Cc2ccccc2)NC(=O)[C@H](Cc2c[nH]cn2)NC(=O)[C@@H](NC(=O)[C@H](CC(=O)O)NC(=O)CC(C)C)[C@@H](C)O)CSSC[C@@H](C(N)=O)NC(=O)CN(C)C(=O)[C@H](CCCCN)NC(=O)[C@H](CO)NC(=O)[C@H](CCCNC(=N)N)NC(=O)[C@@H]2CCCN2C1=O)C(=O)O [Compound 10]	10
CCCCCCCCCCCC(=O)N[C@@H](CCC(=O)NCCCC[C@@H]1NC(=O)[C@H](Cc2ccccc2)NC(=O)[C@H](CCCCN)NC(=O)[C@H]([C@@H](C)CC)NC(=O)[C@@H](NC(=O)[C@@H]2CCCN2C(=O)[C@H](Cc2ccccc2)NC(=O)[C@H](Cc2c[nH]cn2)NC(=O)[C@@H](NC(=O)[C@H](CC(=O)O)NC(=O)CC(C)C)[C@@H](C)O)CSSC[C@@H](C(=O)N[C@@H](CCCCN)C(N)=O)NC(=O)CNC(=O)[C@H](CCCCN)NC(=O)[C@H](CO)NC(=O)[C@H](CCCNC(=N)N)NC(=O)[C@@H]2CCCN2C1=O)C(=O)O [Compound 12]	14

Results, then the molecule that gave them:

DC50 [nM]	SMILES
10	CCCCCCCCCCCCCCCC(=O)NCCCCCC(=O)NCCCC[C@@H]1NC(=O)[C@H](Cc2ccccc2)NC(=O)[C@H](CCCCN)NC(=O)[C@H]([C@@H](C)CC)NC(=O)[C@@H](NC(=O)[C@@H]2CCCN2C(=O)[C@H](Cc2ccccc2)NC(=O)[C@H](Cc2c[nH]cn2)NC(=O)[C@@H](NC(=O)[C@H](CC(=O)O)NC(=O)CC(C)C)[C@@H](C)O)CSSC[C@@H](C(=O)N[C@@H](CCCCN)C(N)=O)NC(=O)CN(C)C(=O)[C@H](CCCCN)NC(=O)[C@H](CO)NC(=O)[C@H](CCCNC(=N)N)NC(=O)[C@@H]2CCCN2C1=O [Compound 24]
26	CC[C@H](C)[C@@H]1NC(=O)[C@@H](NC(=O)[C@@H]2CCCN2C(=O)[C@H](Cc2ccccc2)NC(=O)[C@H](Cc2c[nH]cn2)NC(=O)[C@@H](NC(=O)[C@H](CC(=O)O)NC(=O)CC(C)C)[C@@H](C)O)CSSC[C@@H](C(=O)N[C@@H](CCCCN)C(N)=O)NC(=O)CNC(=O)[C@H](CCCCN)NC(=O)[C@H](CO)NC(=O)[C@H](CCCNC(=N)N)NC(=O)[C@@H]2CCCN2C(=O)[C@H](CCCCNC(=O)CC[C@H](NC(=O)CC(C)C)C(=O)O)NC(=O)[C@H](Cc2ccccc2)NC(=O)[C@H](CCCCN)NC1=O [Compound 15]
29	CC[C@H](C)[C@@H]1NC(=O)[C@@H](NC(=O)[C@@H]2CCCN2C(=O)[C@H](Cc2ccccc2)NC(=O)[C@H](Cc2c[nH]cn2)NC(=O)[C@@H](NC(=O)[C@H](CC(=O)O)NC(=O)CC(C)C)[C@@H](C)O)CSSC[C@@H](C(=O)N[C@@H](CCCCN)C(N)=O)NC(=O)CNC(=O)[C@H](CCCCN)NC(=O)[C@H](CO)NC(=O)[C@H](CCCNC(=N)N)NC(=O)[C@@H]2CCCN2C(=O)[C@H](CCCCNC(=O)CC[C@H](NC(=O)CCCC[C@@H]2SC[C@@H]3NC(=O)N[C@@H]32)C(=O)O)NC(=O)[C@H](Cc2ccccc2)NC(=O)[C@H](CCCCN)NC1=O [Compound 14]
418	CCCCCCCCCCCCCCCC(=O)N[C@@H](CCC(=O)NCCCC[C@@H]1NC(=O)[C@H](Cc2ccccc2)NC(=O)[C@H](CCCCN)NC(=O)[C@H]([C@@H](C)CC)NC(=O)[C@@H](NC(=O)[C@@H]2CCCN2C(=O)[C@H](Cc2ccccc2)NC(=O)[C@H](Cc2c[nH]cn2)NC(=O)[C@@H](NC(=O)[C@H](CC(=O)O)NC(=O)CC(C)C)[C@@H](C)O)C(C)(C)SSC(C)(C)[C@@H](C(=O)N[C@@H](CCCCN)C(N)=O)NC(=O)CNC(=O)[C@H](CCCCN)NC(=O)[C@H](CO)NC(=O)[C@H](CCCNC(=N)N)NC(=O)[C@@H]2CCCN2C1=O)C(=O)O [Compound 3, Isovaleric acid-DTHFP-[Pen]-IKF-[Lys(IsoGlu-Palm)]-PRSKG-[Pen]-K-NH2]

Same assay, conditions: Table 9 reference compounds; ferroportin degradation; read-out: Potency EC50

SMILES	EC50 [nM]
CC[C@H](C)[C@H](NC(=O)[C@H](CS)NC(=O)[C@@H](NC(=O)[C@@H]1CCCN1C(=O)[C@H](Cc1ccccc1)NC(=O)[C@H](Cc1c[nH]cn1)NC(=O)[C@@H](NC(=O)[C@@H](N)CC(=O)O)[C@@H](C)O)[C@@H](C)CC)C(=O)N[C@@H](Cc1ccccc1)C(N)=O [Mini-Hepcidin 1-9, reference compound]	712
